A short description of this data set: log P determination by HPLC (reversed-phase C18, EEC Directive 79/831 Annex V.A8). Format: physicochemical. The note with it: reversed-phase C18 HPLC column, pH 2.3, pH 2.3, 0.1% aqueous phosphoric acid/acetonitrile gradient, 43° C. From the text: Mobile phases for determination in the acidic range: 0.1% aqueous phosphoric acid, acetonitrile; linear gradient from 10% acetonitrile to 90% acetonitrile.

Regarding `Fc1cccc(F)c1C1=NC(c2ccc(-c3cnc(N4CCN(c5ncccn5)CC4)nc3)cc2)CC1` (centres unmarked) [Example 117], the chromatographic logP (usually a lipophilicity value derived from retention on a column) is 2.7.

In turn, `CCCN(CCC)C(=O)c1ccc(-c2ccc(C3CCC(c4c(F)cccc4F)=N3)cc2)nc1` (centres unmarked) [Example 11] had a chromatographic logP of 2.7.

For `CC(C)Oc1ccc(-c2ccc(C3CCC(c4c(F)cccc4F)=N3)cc2)nn1` (centres unmarked) [Example 46], the chromatographic logP stood at 2.5.

Compound `Fc1cccc(F)c1C1=NC(c2ccc(-c3ncc(-c4ccc(Cl)cc4)cn3)cc2)CC1` (centres unmarked) [Example 188] yielded a chromatographic logP of 4.12.

As to `O=C1CCCN1c1ccc(-c2ccc(C3CCC(c4c(F)cccc4F)=N3)cc2)nn1` (centres unmarked) [Example 50], the chromatographic logP was 1.85.

Regarding `Fc1cccc(F)c1C1=NC(c2ccc(-c3ccc(OC(C(F)(F)F)C(F)(F)F)nn3)cc2)CC1` (centres unmarked) [Example 69], the chromatographic logP was found to be 3.7.

On to `Fc1cccc(F)c1C1=NC(c2ccc(-c3cnc(N4CCOCC4)nc3)cc2)CC1` (centres unmarked) [Example 32], for which the chromatographic logP was determined as 2.18.

`CN1CCN(c2ccc(-c3ccc(C4CCC(c5c(F)cccc5F)=N4)cc3)cn2)CC1` (centres unmarked) [Example 96] displayed a chromatographic logP of 1.04.

`Cc1ccc(CN2CCN(c3ncc(-c4ccc(C5CCC(c6c(F)cccc6F)=N5)cc4)cn3)CC2)cc1` (centres unmarked) [Example 141] had a chromatographic logP of 2.28.

For `Fc1cccc(F)c1C1=NC(c2ccc(-c3cnc(-n4ccnc4)nc3)cc2)CC1` (centres unmarked) [Example 124], the chromatographic logP was determined as 1.25.

Compound `CCN(Cc1ccco1)c1ncc(-c2ccc(C3CCC(c4c(F)cccc4F)=N3)cc2)cn1` (centres unmarked) [Example 183] yielded a chromatographic logP of 3.59.

With `CN(C)c1ncc(-c2ccc(C3CCC(c4c(F)cccc4F)=N3)cc2)cn1` (centres unmarked) [Example 29], the chromatographic logP stood at 3.62.

For the compound `COC(=O)c1ccc(-c2ccc(C3CCC(c4c(F)cccc4F)=N3)cc2)nc1` (centres unmarked) [Example 7], the chromatographic logP came out at 2.39.

As to `Fc1cccc(F)c1C1=NC(c2ccc(-c3ccc(OCCCC(F)(F)C(F)(F)F)nn3)cc2)CC1` (centres unmarked) [Example 73], the chromatographic logP turned out to be 3.58.

In turn, `CC(C)N(Cc1ccc(-c2ccc(C3CCC(c4c(F)cccc4F)=N3)cc2)nc1)S(=O)(=O)C(F)(F)F` (centres unmarked) [Example 14] had a chromatographic logP of 3.48.

For the compound `CC1CC(C)CN(c2ccc(-c3ccc(C4CCC(c5c(F)cccc5F)=N4)cc3)cn2)C1` (centres unmarked) [Example 97], the chromatographic logP is 2.1.

`Fc1cccc(F)c1C1=NC(c2ccc(-c3ccc(N4CCCCCC4)nc3)cc2)CC1` (centres unmarked) [Example 109]: the chromatographic logP is 1.65.

`Fc1cccc(F)c1C1=NC(c2ccc(-c3ccc(OC(F)F)nc3)cc2)CC1` (centres unmarked) [Example 127] displayed a chromatographic logP of 3.13.

As for `Fc1cccc(F)c1C1=NC(c2ccc(-c3ccc(Cl)cn3)cc2)CC1` (centres unmarked) [Example 5], the chromatographic logP was found to be 2.86.

As for `CC(C)Sc1ncc(-c2ccc(C3CCC(c4c(F)cccc4F)=N3)cc2)cn1` (centres unmarked) [Example 31], the chromatographic logP worked out at 3.49.

Take `CC(C)(C)c1ccc(CN2CCN(c3ccc(-c4ccc(C5CCC(c6c(F)cccc6F)=N5)cc4)cn3)CC2)cc1` (centres unmarked) [Example 176]: the chromatographic logP was 2.23.

Compound `Fc1ccc(CN2CCN(c3ccc(-c4ccc(C5CCC(c6c(F)cccc6F)=N5)cc4)cn3)CC2)cc1` (centres unmarked) [Example 172] returned a chromatographic logP of 1.64.

Consider `CC(C)Oc1ncc(Br)cn1` [III-7, 5-bromo-2-pyrimidinyl isopropyl ether], for which the chromatographic logP came to 2.39.

Regarding `CC(C)(C)C(=O)N(c1ccc(-c2ccc(C3CCC(c4c(F)cccc4F)=N3)cc2)nn1)C1CCCCC1` (centres unmarked) [Example 65], the chromatographic logP was found to be 3.56.

With `Fc1cccc(F)c1C1=NC(c2ccc(-c3cnc(NCc4ccco4)nc3)cc2)CC1` (centres unmarked) [Example 184], the chromatographic logP stood at 2.31.

Turning to `Fc1cccc(F)c1C1=NC(c2ccc(-c3ccc(N4CCN(Cc5ccccc5)CC4)nc3)cc2)CC1` (centres unmarked) [Example 189], the chromatographic logP was found to be 1.5.

Regarding `Fc1ccc(CN2CCN(c3ncc(-c4ccc(C5CCC(c6c(F)cccc6F)=N5)cc4)cn3)CC2)cc1` (centres unmarked) [Example 145], the chromatographic logP was 1.78.

`O=C(OCc1ccccc1)N1CCN(c2ccc(Cl)nn2)CC1` [III-13, benzyl 4-(6-chloro-3-pyridazinyl)-1-piperazinecarboxylate]: the chromatographic logP was found to be 2.36.

The compound `CC(C#N)c1ccc(-c2ccc(C3CCC(c4c(F)cccc4F)=N3)cc2)nc1` (centres unmarked) [Example 213] returned a chromatographic logP of 1.98.

On to `CC(C)N1CCN(c2ccc(-c3ccc(C4CCC(c5c(F)cccc5F)=N4)cc3)cn2)CC1` (centres unmarked) [Example 192], for which the chromatographic logP came to 1.14.

For the compound `CC(C)COc1ncc(-c2ccc(C3CCC(c4c(F)cccc4F)=N3)cc2)cn1` (centres unmarked) [Example 33], the chromatographic logP turned out to be 3.22.

Regarding `Fc1cccc(F)c1C1=NC(c2ccc(-c3ccc(N4CCOCC4)nn3)cc2)CC1` (centres unmarked) [Example 48], the chromatographic logP was 1.19.

`Fc1cccc(F)c1C1=NC(c2ccc(-c3ccc(N4CCN(c5cccc(C(F)(F)F)c5)CC4)nc3)cc2)CC1` (centres unmarked) [Example 203] gave a chromatographic logP of 3.

For the compound `CCOC(=O)c1cncc(-c2ccc(C3CCC(c4c(F)cccc4F)=N3)cc2)c1` (centres unmarked) [Example 220], the chromatographic logP is 2.42.

In turn, `Fc1cccc(F)c1C1=NC(c2ccc(-c3ccc(N4CCCC4)nn3)cc2)CC1` (centres unmarked) [Example 81] had a chromatographic logP of 1.28.

`COCCN(CCC#N)c1ncc(-c2ccc(C3CCC(c4c(F)cccc4F)=N3)cc2)cn1` (centres unmarked) [Example 178] gave a chromatographic logP of 2.45.

In turn, `Fc1cccc(F)c1C1=NC(c2ccc(-c3cnc(-n4cccn4)nc3)cc2)CC1` (centres unmarked) [Example 130] showed a chromatographic logP of 1.98.

In turn, `CCN(CC)c1ccc(-c2ccc(C3CCC(c4c(F)cccc4F)=N3)cc2)nn1` (centres unmarked) [Example 80] came in with a chromatographic logP of 1.39.

Take `CC(C)(C)C1CCN(c2ccc(-c3ccc(C4CCC(c5c(F)cccc5F)=N4)cc3)cn2)CC1` (centres unmarked) [Example 175]: the chromatographic logP was determined as 2.89.

`Fc1cccc(F)c1C1=NC(c2ccc(-c3cnc(NC4CCCC4)nc3)cc2)CC1` (centres unmarked) [Example 161] showed a chromatographic logP of 2.58.

`CC(C)(C)C1CCN(c2ncc(-c3ccc(C4CCC(c5c(F)cccc5F)=N4)cc3)cn2)CC1` (centres unmarked) [Example 119] came in with a chromatographic logP of 5.47.

Compound `Cc1cccc(N2CCN(c3ccc(-c4ccc(C5CCC(c6c(F)cccc6F)=N5)cc4)cn3)CC2)c1C` (centres unmarked) [Example 157] came in with a chromatographic logP of 3.63.

With `Fc1cccc(F)c1C1=NC(c2ccc(-c3cnc(-n4cncn4)nc3)cc2)CC1` (centres unmarked) [Example 118], the chromatographic logP came to 1.55.

Consider `CCCNc1ccc(-c2ccc(C3CCC(c4c(F)cccc4F)=N3)cc2)nn1` (centres unmarked) [Example 49], for which the chromatographic logP is 1.26.

The compound `Fc1cccc(F)c1C1=NC(c2ccc(-c3cnc(N4CCSCC4)nc3)cc2)CC1` (centres unmarked) [Example 140] registered a chromatographic logP of 3.13.

On to `COCCN(CCOC)c1ncc(-c2ccc(C3CCC(c4c(F)cccc4F)=N3)cc2)cn1` (centres unmarked) [Example 107], for which the chromatographic logP was 2.48.

In the case of `COc1ccc(CN2CCN(c3ncc(-c4ccc(C5CCC(c6c(F)cccc6F)=N5)cc4)cn3)CC2)cc1` (centres unmarked) [Example 142], the chromatographic logP amounted to 2.22.

`CCN(CC)C(=O)c1ccc(-c2ccc(C3CCC(c4c(F)cccc4F)=N3)cc2)nc1` (centres unmarked) [Example 10]: the chromatographic logP came out at 2.02.

Compound `CC(C)Oc1ncc(-c2ccc(C3CCC(c4c(F)cccc4F)=N3)cc2)cn1` (centres unmarked) [Example 30] returned a chromatographic logP of 2.61.

`Cc1cnc(-c2ccc(C3CCC(c4c(F)cccc4F)=N3)cc2)nc1` (centres unmarked) [Example 177] showed a chromatographic logP of 2.02.

Turning to `CCCN(CCC)c1ccc(-c2ccc(C3CCC(c4c(F)cccc4F)=N3)cc2)nn1` (centres unmarked) [Example 78], the chromatographic logP amounted to 1.86.

`Fc1cccc(F)c1C1=NC(c2ccc(-c3cnc(NC4CCCCC4)nc3)cc2)CC1` (centres unmarked) [Example 162] showed a chromatographic logP of 3.

Turning to `CCN1CCN(c2ncc(-c3ccc(C4CCC(c5c(F)cccc5F)=N4)cc3)cn2)CC1` (centres unmarked) [Example 101], the chromatographic logP worked out at 1.24.

`CN(C(=O)C(C)(C)C)c1ccc(-c2ccc(C3CCC(c4c(F)cccc4F)=N3)cc2)nn1` (centres unmarked) [Example 56] registered a chromatographic logP of 2.29.

For the compound `O=Cc1ccc(-c2ccc(C3CCC(c4c(F)cccc4F)=N3)cc2)nc1` (centres unmarked) [Example 221], the chromatographic logP is 1.95.

In turn, `Fc1cccc(F)c1C1=NC(c2ccc(-c3ccc(OCC(F)(F)F)nc3)cc2)CC1` (centres unmarked) [Example 20] came in with a chromatographic logP of 3.66.

As for `Fc1cccc(F)c1C1=NC(c2ccc(-c3cnc(OC4CCC4)nc3)cc2)CC1` (centres unmarked) [Example 197], the chromatographic logP worked out at 2.88.

As to `CCOC(=O)N1CCN(c2ccc(-c3ccc(C4CCC(c5c(F)cccc5F)=N4)cc3)nn2)CC1` (centres unmarked) [Example 70], the chromatographic logP is 1.63.

Compound `CC(=O)c1ccc(-c2ccc(C3CCC(c4c(F)cccc4F)=N3)cc2)nc1` (centres unmarked) [Example 211] showed a chromatographic logP of 2.

In turn, `O=C1CCCN1c1ccc(Cl)nn1` [III-14, 1-(6-chloro-3-pyridazinyl)-2-pyrrolidinone] gave a chromatographic logP of 1.09.

Regarding `CC(C)(C)C(=O)N1CCN(c2ncc(Br)cn2)CC1` [III-6, 1-(tert-butylcarbonyl)-4-(5-bromo-2-pyrimidinyl)piperazine], the chromatographic logP is 2.86.

With `CC(C)S(=O)(=O)c1ccc(Cl)nn1` [III-21, 6-chloro-3-pyridazinyl isopropyl sulphone], the chromatographic logP stood at 1.2.

`CCC1CCN(c2ncc(-c3ccc(C4CCC(c5c(F)cccc5F)=N4)cc3)cn2)CC1` (centres unmarked) [Example 121] displayed a chromatographic logP of 4.58.

Take `Cc1cccc(C)c1N1CCN(c2ccc(-c3ccc(C4CCC(c5c(F)cccc5F)=N4)cc3)cn2)CC1` (centres unmarked) [Example 205]: the chromatographic logP was found to be 3.76.

`Fc1cccc(F)c1C1=NC(c2ccc(-c3cnc(Cl)nc3)cc2)CC1` (centres unmarked) [Example 27] displayed a chromatographic logP of 1.98.

In the case of `CCCCCCC(=O)N(c1ccc(-c2ccc(C3CCC(c4c(F)cccc4F)=N3)cc2)nn1)C1CCCCC1` (centres unmarked) [Example 59], the chromatographic logP stood at 4.35.

The compound `CCNCc1ccc(-c2ccc(C3CCC(c4c(F)cccc4F)=N3)cc2)nc1` (centres unmarked) [Example 201] had a chromatographic logP of 0.9.

Regarding `CON=C1CCN(c2ncc(-c3ccc(C4CCC(c5c(F)cccc5F)=N4)cc3)cn2)CC1` (centres unmarked) [Example 215], the chromatographic logP amounted to 2.65.

The values above are taken from patent US7179806B2, “Δ1-pyrrolines used as pesticides” (Bayer Cropscience AG, priority 2000, dated 2007).
